Data from article PMC11672400, “Synthesis, Spectroscopic Characterization, Structural Analysis, and Evaluation of Anti-Tumor, Antimicrobial, and Antibiofilm Activities of Halogenoaminopyrazoles Derivatives” (Antibiotics, 2024).
Values after ≈ are worked out from the molar mass of the structure shown. Where two headings read alike, the source gives them in different places.

Key:
[1] = test system: Enterococcus faecalis ATCC29212; experiment: Antibiofilm assay (crystal violet), MBIC; assay type: cell-based; conditions: Enterococcus faecalis, ATCC29212, 24 h, 37 °C, read-out: Minimum biofilm inhibition concentration (MBIC), Enterococcus faecalis ATCC29212
In short: (§1)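 Biofilms grown in nutrient broth with test substances for 24 h at 37 °C. After rinsing with sterile physiological water, attached cells were fixed 5 min with methanol, then crystal violet stained.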

[2] = test system: Staphylococcus aureus ATCC25923; experiment: Antibiofilm assay (crystal violet), MBIC; assay type: cell-based; conditions: 24 h, 37 °C; for minimal effective concentration: Staphylococcus aureus, ATCC25923, read-out: Minimum biofilm inhibition concentration (MBIC), Staphylococcus aureus ATCC25923
In short: as §1

[3] = test system: Pseudomonas aeruginosa ATCC27853; experiment: Antibiofilm assay (crystal violet), MBIC; assay type: cell-based; conditions: 37 °C; for minimal effective concentration: Pseudomonas aeruginosa, ATCC27853, 24 h, read-out: Minimum biofilm inhibition concentration (MBIC), Pseudomonas aeruginosa ATCC27853
In short: as §1

[4] = test system: Escherichia coli ATCC25922; experiment: Antibiofilm assay (crystal violet), MBIC; assay type: cell-based; conditions: 37 °C; for minimal effective concentration: Escherichia coli, ATCC25922, 24 h, read-out: Minimum biofilm inhibition concentration (MBIC), Escherichia coli ATCC25922
In short: as §1

[5] = test system: Enterococcus faecalis ATCC29212; experiment: Qualitative evaluation of antimicrobial activity (inhibition zone, spot on agar); assay type: cell-based; set-up: key: (+) inhibited bacterial growth; (-) did not inhibit bacterial growth; conditions: 0.06 g/2 mL DMSO, 5 µL spot
Protocol: (§2) For testing the antimicrobial/antibiofilm activity, the concentration of the studied compounds was identical to 0.06 g/2 mL DMSO. 0.5 Standard McFarland suspension was used, which was inoculated onto Mueller Hinton agar plates, (Remel, Lenexa, KS, USA), 5 µL of each compound was spotted and incubated overnight at 37 °C. Antimicrobial activity was observed as zones of inhibition formed around the spot.

[6] = test system: Staphylococcus aureus ATCC25923; experiment: as above; assay type: cell-based; set-up: key: (+) inhibited bacterial growth; (-) did not inhibit bacterial growth; conditions: 0.06 g/2 mL DMSO, 5 µL spot
Protocol: as §2

[7] = test system: Pseudomonas aeruginosa ATCC27853; experiment: as above; assay type: cell-based; set-up: key: (+) inhibited bacterial growth; (-) did not inhibit bacterial growth; conditions: 0.06 g/2 mL DMSO, 5 µL spot
Protocol: as §2

[8] = test system: Escherichia coli ATCC25922; experiment: as above; assay type: cell-based; set-up: key: (+) inhibited bacterial growth; (-) did not inhibit bacterial growth; conditions: 0.06 g/2 mL DMSO, 5 µL spot
Protocol: as §2

[9] = test system: HEp-2 epithelial tumor cells; experiment: MTT cell viability / anti-tumor activity; conditions: Homo sapiens; for viability at 3.1 µg/mL / viability at 6.25 µg/mL / viability at 12.5 µg/mL / viability at 25 µg/mL / viability at 50 µg/mL: read-out: Cell viability on Hep2 cells (%); for IC50: read-out: IC50 µg/mL on HEp-2 Cells 48 h, HEp-2 epithelial tumor cells, MTT, 48 h
[10] = test system: Enterococcus faecalis ATCC29212; experiment: MIC by serial microdilution in liquid medium; assay type: cell-based; conditions: Enterococcus faecalis, ATCC29212; 24 h, 37 °C; read-out: Minimum inhibitory concentration, Enterococcus faecalis ATCC29212
In short: (§3)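 Twofold serial dilutions from a DMSO stock (10 mg/mL) in Tryptone Soy Broth, inoculated with 10 µL of a 10^6 CFU/mL suspension, incubated 24 h at 37 °C. Growth judged visually and by OD 620 nm; MIC (µg/mL) is the lowest concentration without growth, run in triplicate.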

[11] = test system: Staphylococcus aureus ATCC25923; experiment: MIC by serial microdilution in liquid medium; assay type: cell-based; conditions: 24 h, 37 °C; for MIC: Staphylococcus aureus, ATCC25923, read-out: Minimum inhibitory concentration, Staphylococcus aureus ATCC25923
In short: as §3

[12] = test system: Pseudomonas aeruginosa ATCC27853; experiment: MIC by serial microdilution in liquid medium; assay type: cell-based; conditions: Pseudomonas aeruginosa, ATCC27853; 24 h, 37 °C; read-out: Minimum inhibitory concentration, Pseudomonas aeruginosa ATCC27853
In short: as §3

[13] = test system: Escherichia coli ATCC25922; experiment: MIC by serial microdilution in liquid medium; assay type: cell-based; conditions: 24 h, 37 °C; for MIC: Escherichia coli, ATCC25922, read-out: Minimum inhibitory concentration, Escherichia coli ATCC25922
In short: as §3

[14] = MTT cell viability / cytotoxicity on normal fibroblasts; assay type: cell-based, mouse; conditions: mouse, read-out: Cell viability on NCTC cells (%)
From the text: (§4) Merck chemicals were utilized.
(§5) Untreated cells were used as control, considered 100% viable cells.

[15] = test system: NCTC (clone 929) mouse fibroblast cells; experiment: as above; assay type: cell-based; conditions: Mus musculus, NCTC clone 929; NCTC normal fibroblasts, MTT, 48 h
From the text: as §4, §5

Structure (SMILES) | minimal effective concentration [1] [µg/mL] | minimal effective concentration [2] [µg/mL] | minimal effective concentration [3] [µg/mL] | minimal effective concentration [4] [µg/mL] | Qualitative antimicrobial activity, Enterococcus faecalis ATCC29212 [5] | Qualitative antimicrobial activity, Staphylococcus aureus ATCC25923 [6] | Qualitative antimicrobial activity, Pseudomonas aeruginosa ATCC27853 [7] | Qualitative antimicrobial activity, Escherichia coli ATCC25922 [8] | melting point [°C] | viability at 3.1 µg/mL ([9]; HEp-2, 24 h) [%] | viability at 6.25 µg/mL ([9]; HEp-2, 24 h) [%] | viability at 12.5 µg/mL ([9]; HEp-2, 24 h) [%] | viability at 25 µg/mL ([9]; HEp-2, 24 h) [%] | viability at 50 µg/mL ([9]; HEp-2, 24 h) [%] | viability at 3.1 µg/mL ([9]; HEp-2, 48 h) [%] | viability at 6.25 µg/mL ([9]; HEp-2, 48 h) [%] | viability at 12.5 µg/mL ([9]; HEp-2, 48 h) [%] | viability at 25 µg/mL ([9]; HEp-2, 48 h) [%] | viability at 50 µg/mL ([9]; HEp-2, 48 h) [%] | IC50 ([9]; HEp-2, 48 h) [µg/mL] | other results
Cc1nn(CN(Cn2nc(C)c([N+](=O)[O-])c2C)c2cccc(Cl)c2)c(C)c1[N+](=O)[O-] [5e, N,N-bis-[(3,5-dimetyl-4-nitro-1H-pyrazol-1-yl)-methyl]-3-chloroaniline] | 930 ± 0.15 | 930 ± 0.15 | 930 ± 0.15 | 930 ± 0.15 | - | - | - | - | 154 to 155 | 103.7 ± 0.73 | 102.4 ± 0.28 | 82.29 ± 0.32 | 70.5 ± 0.88 | 59.94 ± 0.42 | 102.5 ± 0.48 | 96.06 ± 0.34 | 77.4 ± 0.63 | 60.3 ± 0.67 | 37.7 ± 0.46 | 31.7 ± 0.48 (≈ 73.1 µM) | MIC [10]: 1870 ± 0.09 µg/mL (≈ 4310 µM); MIC [11]: 930 ± 0.04 µg/mL (≈ 2140 µM); MIC [12]: 1870 ± 0.04 µg/mL (≈ 4310 µM); MIC [13]: 1870 ± 0.08 µg/mL (≈ 4310 µM); viability at 24 h, 3.1 µg/mL [14]: 101.9 ± 0.73%; viability at 48 h, 3.1 µg/mL [14]: 95.71 ± 0.5%; viability at 24 h, 6.25 µg/mL [14]: 98.57 ± 0.27%; viability at 48 h, 6.25 µg/mL [14]: 89.47 ± 0.34%; viability at 24 h, 12.5 µg/mL [14]: 88.26 ± 0.32%; viability at 48 h, 12.5 µg/mL [14]: 69.25 ± 0.3%; viability at 24 h, 25 µg/mL [14]: 77.7 ± 0.88%; viability at 48 h, 25 µg/mL [14]: 40.3 ± 0.68%; viability at 24 h, 50 µg/mL [14]: 65.79 ± 0.42%; viability at 48 h, 50 µg/mL [14]: 26.4 ± 0.46%; IC50 [15]: 20.3 ± 0.45 µg/mL (≈ 46.8 µM)
Cc1nn(CN(Cn2nc(C)c([N+](=O)[O-])c2C)c2ccc(F)cc2)c(C)c1[N+](=O)[O-] [5a, N,N-bis-[(3,5-dimetyl-4-nitro-1H-pyrazol-1-yl)-methyl]-4-fluoroaniline] | 930 ± 0.14 | 230 | 460 | 460 | - | + | + | + | 78 to 80 | 90.8 ± 1.1 | 104.4 ± 0.32 | 96.6 ± 3.1 | 82.7 ± 1.85 | 57.2 ± 1.13 | 90.1 ± 2.22 | 85.2 ± 3.13 | 80.1 ± 1.54 | 67.4 ± 3.23 | 38.8 ± 0.71 | 40.5 ± 0.79 (≈ 97.1 µM) | Minimum biofilm inhibition concentration (MBIC), Staphylococcus aureus ATCC25923 [2]: 230 ± 0.05 µg/mL; Minimum biofilm inhibition concentration (MBIC), Pseudomonas aeruginosa ATCC27853 ([3]; 24 h): 460 ± 0.12 µg/mL; Minimum biofilm inhibition concentration (MBIC), Escherichia coli ATCC25922 ([4]; 24 h): 460 ± 0.12 µg/mL; MIC [10]: 930 ± 0.06 µg/mL (≈ 2230 µM); Minimum inhibitory concentration, Staphylococcus aureus ATCC25923 [11]: 460 ± 0.03 µg/mL (≈ 1100 µM); MIC [11]: 460 µg/mL (≈ 1100 µM); MIC [12]: 460 ± 0.04 µg/mL (≈ 1100 µM); Minimum inhibitory concentration, Escherichia coli ATCC25922 [13]: 460 ± 0.06 µg/mL (≈ 1100 µM); MIC [13]: 460 µg/mL (≈ 1100 µM); viability at 24 h, 3.1 µg/mL [14]: 97.7 ± 1.8%; viability at 48 h, 3.1 µg/mL [14]: 87.19 ± 0.7%; viability at 24 h, 6.25 µg/mL [14]: 98.3 ± 2.22%; viability at 48 h, 6.25 µg/mL [14]: 88.7 ± 2.4%; viability at 24 h, 12.5 µg/mL [14]: 100 ± 2.07%; viability at 48 h, 12.5 µg/mL [14]: 98.2 ± 2.04%; viability at 24 h, 25 µg/mL [14]: 97.4 ± 2.4%; viability at 48 h, 25 µg/mL [14]: 93.7 ± 1.17%; viability at 24 h, 50 µg/mL [14]: 88.6 ± 2.66%; viability at 48 h, 50 µg/mL [14]: 92.5 ± 1.32%; IC50 [15]: > 50 µg/mL
